The target in data set [1] is T1, recombinant BChE (hBChE, E.C. 3.1.1.8) (Homo sapiens, UniProt P06276).
T1 construct: purchased Sigma-Aldrich, Prague, Czech Republic
The data set is described as follows: biochemical. The class given is biochemical. As to conditions: for IC50: mean ± SEM of three independent measurements, each in triplicate; for inhibition at 10 µM: read-out: % inhibition of hBChE ± SEM.
Method: The activities of hAChE and hBChE were determined using a modified Ellman's method, as described in ref. [56] and [62] against recombinant AChE (hAChE, E.C. 3.1.1.7) and recombinant BChE (hBChE, E.C. 3.1.1.8), both of which were purchased from Sigma-Aldrich, Prague, Czech Republic. […] The other compounds used, including the phosphate buffer solution (PBS, pH = 7.4), 5,5′-dithio-bis(2-nitrobenzoic) acid (Ellman's reagent, DTNB), acetylthiocholine (ATChI), and butyrylthiocholine (BTChI), were commercially available and purchased from Sigma-Aldrich in Prague, Czech Republic. In brief, the corresponding enzyme (8.3 μL), 5 mM DTNB (283 μL), and the sample dilution in dimethyl sulfoxide (DMSO) at various concentrations (8.3 μL) were added to 96-well microplates (BRAND GMBH + CO KG, Wertheim, Germany) and pre-incubated for 5 minutes in the assay medium. The reaction was initiated by adding 10 mM substrate (ATChI or BTChI, 33.3 μL). […] Each measurement was repeated in triplicate. The percentage of inhibition was calculated using the following formula: [drawing 8] where ΔABl represents the increase in absorbance of the blank sample, and ΔASa represents the increase in absorbance of the measured sample. […] Microsoft Excel (Redmond, WA, USA) and GraphPad Prism version 7 for Windows (GraphPad Software, San Diego, CA, USA) were used for the statistical data evaluation.

A short description of data set [2]: PAMPA assay (BBB penetration). As to conditions: for BBB penetration estimation CNS (+/−): class from PAMPA Pe; for Pe ± SEM: PAMPA, PBS pH 7.4, n = 3.
From the text: Furthermore, we experimentally determined the ability of 12 highlighted hBChE inhibitors to pass through the BBB using a parallel artificial membrane permeation assay (PAMPA) as described by Di et al.[65] […] The methodology was validated on a set of compounds (positive and negative controls) recognized for their activity in the CNS (Table 3).
In this study, it has been used as a non-cell-based in vitro assay carried out in a coated 96-well membrane filter. The filter membrane of the donor plate was coated with PBL (polar brain lipid, Avanti, USA) in dodecane (4 μl of 20 mg ml^−1 PBL in dodecane) and the acceptor well was filled with 300 μl of PBS (pH 7.4; VA). The tested compounds were dissolved first in DMSO and subsequently diluted with PBS (pH 7.4) to final concentrations of 50–100 μM in the donor wells. […] About 300 μL of the donor solution was added to the donor wells (VD) and the donor filter plate was carefully put on the acceptor plate so that the coated membrane was “in touch” with both the donor solution and acceptor buffer. In principle, the test compound diffused from the donor well through the lipid membrane (area = 0.28 cm^2) to the acceptor well. The concentration of the drug in both the donor and acceptor wells was assessed after 3, 4, 5, and 6 h of incubation in quadruplicate using the UV plate reader Spark (Tecan Group Ltd, Switzerland) at the maximum absorption wavelength of each compound. Besides that, a solution of theoretical compound concentration, simulating the equilibrium state established if the membrane were ideally permeable, was prepared and assessed as well. The concentration of the compounds in the donor and acceptor wells and equilibrium concentration were calculated from the standard curve and expressed as the permeability (Pe) according the equation: [drawing 10] where [drawing 11]
Setting [3] is: tested at 10 μM compound concentration.

One may read the IC50 as the concentration needed to halve the response being measured. As usually defined, the inhibition is the change of the read-out against control, counted positive when it falls.

Read-outs that look alike come from different tables or passages of the source.

T1 sequence (P06276 29-602): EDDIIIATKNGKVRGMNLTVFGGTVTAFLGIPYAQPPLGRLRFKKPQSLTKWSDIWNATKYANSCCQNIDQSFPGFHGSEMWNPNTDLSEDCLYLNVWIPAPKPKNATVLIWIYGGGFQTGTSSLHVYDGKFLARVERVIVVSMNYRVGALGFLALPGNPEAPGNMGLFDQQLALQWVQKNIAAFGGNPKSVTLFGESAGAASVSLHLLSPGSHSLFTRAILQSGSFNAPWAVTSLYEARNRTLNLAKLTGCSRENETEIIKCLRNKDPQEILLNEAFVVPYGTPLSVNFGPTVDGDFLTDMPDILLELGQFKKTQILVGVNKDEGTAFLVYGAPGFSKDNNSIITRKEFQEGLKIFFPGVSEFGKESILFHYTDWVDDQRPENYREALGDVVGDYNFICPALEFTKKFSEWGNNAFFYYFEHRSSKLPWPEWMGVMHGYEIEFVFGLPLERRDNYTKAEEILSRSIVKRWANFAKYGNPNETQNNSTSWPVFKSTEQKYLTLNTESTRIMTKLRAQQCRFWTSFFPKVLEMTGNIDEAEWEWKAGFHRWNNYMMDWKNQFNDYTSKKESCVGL

Consider `C=CCN(Cc1ccccc1)Cc1cccc(OCc2ccccc2)c1` [Compound 20, Benzyl({[3-(benzyloxy)phenyl]methyl})(prop-2-en-1-yl)amine], for which, in data set [1], the concentration for half-maximal inhibition (IC50) was over 10000 nM. Besides, the inhibition at 10 µM in data set [1] (setting [3]) is 36 ± 0.8%.

On to `COc1ccc(CNCc2cccc(OCc3ccccc3)c2)cc1OC` [Compound 15, {[3-(Benzyloxy)phenyl]methyl}[(3,4-dimethoxyphenyl)methyl]amine], for which, in data set [1], the “hBChE inhibitory activity (in words)” value was “completely inactive” and the half-maximal inhibitory concentration (IC50) is over 10000 nM. Further, in data set [1] (setting [3]), the inhibition at 10 µM was 49 ± 1.4%.

As to `COc1ccc2c3c1O[C@H]1C[C@@H](O)C=C[C@@]31CCN(C)C2` [Galantamine, reference compound], the inhibition at 10 µM in data set [1] came to 29 ± 3.5%.

With `c1ccc(COc2ccc(CNCc3ccccn3)cc2)cc1` [Compound 36, {[4-(Benzyloxy)phenyl]methyl}[(pyridin-2-yl)methyl]amine], in data set [1], the 50% inhibitory concentration (IC50) was over 10000 nM. Also, the inhibition at 10 µM in data set [1] (setting [3]) turned out to be 18 ± 0.5%.

Turning to `COc1cccc(CCNCc2cccc(OCc3ccccc3)c2)c1` [Compound 6, {[3-(Benzyloxy)phenyl]methyl}[2-(3-methoxyphenyl)ethyl]amine], in data set [1], the IC50 was 2700 ± 200 nM. The inhibition at 10 µM in data set [1] (setting [3]) worked out at 78 ± 0.4%.

For `Nc1c2c(nc3ccccc13)CCCC2` [Tacrine, reference compound], in data set [2], the “BBB penetration estimation CNS (+/−)” value is given as “CNS + (CNS (+) (high BBB permeation predicted): Pe (×10^−6 cm s^−1) > 4.0)”.

Regarding `c1ccc(CCCNCc2ccc(OCc3ccccc3)cc2)cc1` [Compound 39, {[4-(Benzyloxy)phenyl]methyl}(3-phenylpropyl)amine], the half-inhibitory concentration (IC50) in data set [1] stood at 700 ± 100 nM. Further, the inhibition at 10 µM in data set [1] (setting [3]) came out at 90 ± 0.3%.

`CCN(CCc1ccccc1)Cc1cccc(OCc2ccccc2)c1` [Compound 21, {[3-(Benzyloxy)phenyl]methyl}(ethyl)(2-phenylethyl)amine]: in data set [1], the IC50 turned out to be 400 ± 100 nM. The inhibition at 10 µM in data set [1] (setting [3]) worked out at 91 ± 0.4%. In data set [2], the “Pe ± SEM” value is reported as 21.0 ± 0.6 ×10^−6 cm s^−1 and the “BBB penetration estimation CNS (+/−)” value was “CNS + (CNS (+) (high BBB permeation predicted): Pe (×10^−6 cm s^−1) > 4.0)”.

With `CNC(=O)Oc1ccc2c(c1)[C@]1(C)CCN(C)[C@@H]1N2C` [Eserine, reference compound], the inhibition at 10 µM in data set [1] amounted to 96 ± 0.3%.

`c1ccc(CCNCc2cccc(OCc3ccccc3)c2)cc1` [Compound 16, {[3-(Benzyloxy)phenyl]methyl}(2-phenylethyl)amine]: the IC50 in data set [1] was determined as 600 ± 100 nM. In addition, in data set [1] (setting [3]), the inhibition at 10 µM was 91 ± 0.9%.

With `CCN(Cc1ccccc1)Cc1cccc(OCc2ccccc2)c1` [Compound 19, Benzyl({[3-(benzyloxy)phenyl]methyl})ethylamine], the IC50 in data set [1] amounted to 500 ± 100 nM. Further, the inhibition at 10 µM in data set [1] (setting [3]) stood at 88 ± 1.1%. In addition, in data set [2], the “Pe ± SEM” value is reported as 36 ± 14 ×10^−6 cm s^−1 and the “BBB penetration estimation CNS (+/−)” value is given as “CNS + (CNS (+) (high BBB permeation predicted): Pe (×10^−6 cm s^−1) > 4.0)”.

With `C=CCOc1ccc(CCN(CC=C)Cc2cccc(OCc3ccccc3)c2)cc1` [Compound 9, {[3-(Benzyloxy)phenyl]methyl}(prop-2-en-1-yl){2-[4-(prop-2-en-1-yloxy)phenyl]ethyl}amine], in data set [1], the “hBChE inhibitory activity (in words)” value is listed as “complete loss of hBChE inhibitory activity” and the IC50 is over 10000 nM. Besides, the inhibition at 10 µM in data set [1] (setting [3]) is 46 ± 1.7%.

Turning to `c1ccc(CNCc2cccc(OCc3ccccc3)c2)cc1` [Compound 14, Benzyl({[3-(benzyloxy)phenyl]methyl})amine], the IC50 in data set [1] is 500 ± 100 nM. For the same compound, the inhibition at 10 µM in data set [1] (setting [3]) worked out at 92 ± 0.3%. In addition, in data set [2], the “Pe ± SEM” value is 9.8 ± 2.9 ×10^−6 cm s^−1 and the “BBB penetration estimation CNS (+/−)” value was “CNS + (CNS (+) (high BBB permeation predicted): Pe (×10^−6 cm s^−1) > 4.0)”.

In the case of `CCN(Cc1ccc(OCc2ccccc2)cc1)C(C)CCc1ccccc1` (stereo not shown) [Compound 46, {[4-(Benzyloxy)phenyl]methyl}(ethyl)(4-phenylbutan-2-yl)amine], in data set [1], the concentration for half-maximal inhibition (IC50) worked out at 500 ± 300 nM. In data set [1] (setting [3]), the inhibition at 10 µM worked out at 87 ± 1.5%. In data set [2], the “Pe ± SEM” value is on record as 36.0 ± 2.0 ×10^−6 cm s^−1 and the “BBB penetration estimation CNS (+/−)” value was “CNS + (CNS (+) (high BBB permeation predicted): Pe (×10^−6 cm s^−1) > 4.0)”.

Regarding `C=CCN(CCc1ccccc1)Cc1cccc(OCc2ccccc2)c1` [Compound 23, {[3-(Benzyloxy)phenyl]methyl}(2-phenylethyl)(prop-2-en-1-yl)amine], the IC50 in data set [1] amounted to 7700 ± 1700 nM. Besides, in data set [1] (setting [3]), the inhibition at 10 µM came out at 60 ± 0.4%.

For `CCCN(Cc1ccccc1)Cc1ccc(OCc2ccccc2)cc1` [Compound 44, Benzyl({[4-(benzyloxy)phenyl]methyl})propylamine], the IC50 in data set [1] is over 10000 nM. Further, in data set [1] (setting [3]), the inhibition at 10 µM was 18 ± 0.3%.

Regarding `Clc1ccc(CCNCc2ccc(OCc3ccccc3)cc2)cc1` [Compound 32, {[4-(Benzyloxy)phenyl]methyl}[2-(4-chlorophenyl)ethyl]amine], the IC50 in data set [1] was 700 ± 200 nM. Besides, the inhibition at 10 µM in data set [1] (setting [3]) amounted to 85 ± 1%.

As to `COc1ccccc1CCNCc1ccc(OCc2ccccc2)cc1` [Compound 29, {[4-(Benzyloxy)phenyl]methyl}[2-(2-methoxyphenyl)ethyl]amine], the IC50 in data set [1] was determined as 800 ± 200 nM. Also, the inhibition at 10 µM in data set [1] (setting [3]) was determined as 89 ± 0.9%.

For the compound `CCCN(Cc1ccc(OCc2ccccc2)cc1)C(C)CCc1ccccc1` (stereo not shown) [Compound 47, {[4-(Benzyloxy)phenyl]methyl}(4-phenylbutan-2-yl)propylamine], in data set [1], the IC50 worked out at 1000 ± 300 nM. Moreover, the inhibition at 10 µM in data set [1] (setting [3]) amounted to 93 ± 0.2%.

`CCN(Cc1ccccc1)Cc1ccc(OCc2ccccc2)cc1` [Compound 43, Benzyl({[4-(benzyloxy)phenyl]methyl})ethylamine]: the IC50 in data set [1] was over 10000 nM. Moreover, the inhibition at 10 µM in data set [1] (setting [3]) turned out to be 50 ± 1.1%.

For `COc1ccc(CCNCc2cccc(OCc3ccccc3)c2)cc1` [Compound 7, {[3-(Benzyloxy)phenyl]methyl}[2-(4-methoxyphenyl)ethyl]amine], the IC50 in data set [1] was 4800 ± 200 nM. Also, the inhibition at 10 µM in data set [1] (setting [3]) stood at 73 ± 0.6%.

As to `c1ccc(COc2ccc(CNCCc3ccccn3)cc2)cc1` [Compound 38, {[4-(Benzyloxy)phenyl]methyl}[2-(pyridin-2-yl)ethyl]amine], the 50% inhibitory concentration (IC50) in data set [1] was over 10000 nM. Moreover, the inhibition at 10 µM in data set [1] (setting [3]) came to 23 ± 1%.

On to `c1ccc(CCNCc2ccc(OCc3ccccc3)cc2)cc1` [Compound 37, {[4-(Benzyloxy)phenyl]methyl}(2-phenylethyl)amine], for which the IC50 in data set [1] amounted to 2000 ± 300 nM. Also, the inhibition at 10 µM in data set [1] (setting [3]) came to 81 ± 1.4%.

As to `COc1cccc(CCNCc2ccc(OCc3ccccc3)cc2)c1` [Compound 30, {[4-(Benzyloxy)phenyl]methyl}[2-(3-methoxyphenyl)ethyl]amine], in data set [1], the IC50 amounted to 4900 ± 1000 nM. Besides, the inhibition at 10 µM in data set [1] (setting [3]) came to 66 ± 0.1%.

For the compound `CC(CNCc1ccc(OCc2ccccc2)cc1)c1ccccc1` (stereo not shown) [Compound 41, {[4-(Benzyloxy)phenyl]methyl}(2-phenylpropyl)amine], the IC50 in data set [1] is 1600 ± 100 nM. The inhibition at 10 µM in data set [1] (setting [3]) is 88 ± 1%.

With `C=CCOc1ccc(CCNCc2cccc(OCc3ccccc3)c2)cc1` [Compound 12, {[3-(Benzyloxy)phenyl]methyl}({2-[4-(prop-2-en-1-yloxy)phenyl]ethyl})amine], in data set [1], the IC50 is 4000 ± 1000 nM. For the same compound, the inhibition at 10 µM in data set [1] (setting [3]) came to 75.5 ± 0.5%.

For the compound `CCCN(CCc1ccccc1)Cc1cccc(OCc2ccccc2)c1` [Compound 22, {[3-(Benzyloxy)phenyl]methyl}(2-phenylethyl)propylamine], the IC50 in data set [1] is 700 ± 100 nM. Besides, the inhibition at 10 µM in data set [1] (setting [3]) was determined as 81 ± 0.8%.

For the compound `c1ccc(CNCc2ccc(OCc3ccccc3)cc2)cc1` [Compound 35, Benzyl({[4-(benzyloxy)phenyl]methyl})amine], the IC50 in data set [1] worked out at 2800 ± 600 nM. Also, the inhibition at 10 µM in data set [1] (setting [3]) stood at 60 ± 0.1%.

With `C=CCN(CCCc1ccccc1)Cc1cccc(OCc2ccccc2)c1` [Compound 26, {[3-(Benzyloxy)phenyl]methyl}(3-phenylpropyl)(prop-2-en-1-yl)amine], the IC50 in data set [1] came out at 1200 ± 300 nM. Besides, in data set [1] (setting [3]), the inhibition at 10 µM is 76 ± 1.7%.

As for `C=CCN(CCc1ccc(O)cc1)Cc1cccc(OCc2ccccc2)c1` [Compound 8, 4-[2-({[3-(Benzyloxy)phenyl]methyl}(prop-2-en-1-yl)amino)ethyl]phenol], the 50% inhibitory concentration (IC50) in data set [1] stood at 600 ± 100 nM. Moreover, the inhibition at 10 µM in data set [1] (setting [3]) amounted to 92 ± 0.5%.

For `COc1ccc(CCNCc2ccc(OCc3ccccc3)cc2)cc1` [Compound 31, {[4-(Benzyloxy)phenyl]methyl}[2-(4-methoxyphenyl)ethyl]amine], the IC50 in data set [1] turned out to be 3000 ± 600 nM. Besides, in data set [1] (setting [3]), the inhibition at 10 µM amounted to 93 ± 0.2%.

As for `Clc1cccc(NCc2cccc(OCc3ccccc3)c2)c1` [Compound 13, N-{[3-(Benzyloxy)phenyl]methyl}-3-chloroaniline], in data set [1], the “hBChE inhibitory activity (in words)” value was “completely inactive” and the IC50 is over 10000 nM. The inhibition at 10 µM in data set [1] (setting [3]) was determined as 7.5 ± 0.4%.

For the compound `CCCOc1ccc(CCN(CCC)Cc2ccc(OCc3ccccc3)cc2)cc1` [Compound 34, {[4-(Benzyloxy)phenyl]methyl}[2-(4-propoxyphenyl)ethyl]propylamine], in data set [1], the “hBChE inhibitory activity (in words)” value is “complete loss of hBChE inhibitory activity” and the IC50 is over 10000 nM. The inhibition at 10 µM in data set [1] (setting [3]) was found to be 30 ± 0.9%.

With `CCN(CCCc1ccccc1)Cc1cccc(OCc2ccccc2)c1` [Compound 24, {[3-(Benzyloxy)phenyl]methyl}(ethyl)(3-phenylpropyl)amine], the IC50 in data set [1] is 600 ± 100 nM. Further, the inhibition at 10 µM in data set [1] (setting [3]) came out at 94 ± 0.6%.

With `c1ccc(CCCCNCc2ccc(OCc3ccccc3)cc2)cc1` [Compound 40, {[4-(Benzyloxy)phenyl]methyl}(4-phenylbutyl)amine], in data set [1], the IC50 is 800 ± 100 nM. In data set [1] (setting [3]), the inhibition at 10 µM turned out to be 85 ± 0.6%.

Consider `c1ccc(CCCNCc2cccc(OCc3ccccc3)c2)cc1` [Compound 17, {[3-(Benzyloxy)phenyl]methyl}(3-phenylpropyl)amine], for which the IC50 in data set [1] is 600 ± 100 nM. Moreover, the inhibition at 10 µM in data set [1] (setting [3]) worked out at 89 ± 1.8%.

For `NS(=O)(=O)c1cc2c(cc1Cl)N=CNS2(=O)=O` [Chlorothiazide, reference compound], the “BBB penetration estimation CNS (+/−)” value in data set [2] was “CNS − (CNS (−) (low BBB permeation predicted): Pe (×10^−6 cm s^−1) < 2.0)”.
